Assay results published in PubChem BioAssay (NCI).
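Method: 48-hour compound exposure of cells in 96-well plates, five concentrations, linear interpolation of endpoints. Definition used: TGI = concentration required for complete inhibition of growth.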

Tests used:
Assay in all cases: NCI tumour cell line growth inhibition, 48 h
SNB-75 CNS = tested on: SNB-75 CNS
RPMI-8226 leukemia = tested on: RPMI-8226 leukemia
NCI-H226 lung = tested on: NCI-H226 lung
LOX IMVI melanoma = tested on: LOX IMVI melanoma
UACC-257 melanoma = tested on: UACC-257 melanoma
K-562 leukemia = tested on: K-562 leukemia
DU-145 prostate = tested on: DU-145 prostate
786-0 renal = tested on: 786-0 renal
HCT-116 colon = tested on: HCT-116 colon
TK-10 renal = tested on: TK-10 renal
A498 renal = tested on: A498 renal
HOP-62 NSCLC = tested on: HOP-62 NSCLC
A549 NSCLC = tested on: A549 NSCLC
CAKI-1 renal = tested on: CAKI-1 renal
HOP-92 NSCLC = tested on: HOP-92 NSCLC
NCI-H23 lung = tested on: NCI-H23 lung
HT29 colon = tested on: HT29 colon
SF-295 CNS = tested on: SF-295 CNS
OVCAR-5 ovarian = tested on: OVCAR-5 ovarian
M14 melanoma = tested on: M14 melanoma
T-47D breast = tested on: T-47D breast
SK-MEL-5 melanoma = tested on: SK-MEL-5 melanoma
MCF7 breast = tested on: MCF7 breast
SK-MEL-28 melanoma = tested on: SK-MEL-28 melanoma
SF-539 CNS = tested on: SF-539 CNS
MDA-MB-435 = tested on: MDA-MB-435
EKVX NSCLC = tested on: EKVX NSCLC
HCC-2998 colon = tested on: HCC-2998 colon
SN12C renal = tested on: SN12C renal
NCI-H522 lung = tested on: NCI-H522 lung
OVCAR-8 ovarian = tested on: OVCAR-8 ovarian
OVCAR-3 ovarian = tested on: OVCAR-3 ovarian
U251 CNS = tested on: U251 CNS
RXF 393 renal = tested on: RXF 393 renal
SNB-19 CNS = tested on: SNB-19 CNS
MDA-N = tested on: MDA-N
MDA-MB-231 breast = tested on: MDA-MB-231 breast
CCRF-CEM leukemia = tested on: CCRF-CEM leukemia
MALME-3M melanoma = tested on: MALME-3M melanoma
SW-620 colon = tested on: SW-620 colon
HS 578T breast = tested on: HS 578T breast
SK-MEL-2 melanoma = tested on: SK-MEL-2 melanoma
BT-549 breast = tested on: BT-549 breast
SR leukemia = tested on: SR leukemia
HCT-15 colon = tested on: HCT-15 colon
SK-OV-3 ovarian = tested on: SK-OV-3 ovarian
MOLT-4 leukemia = tested on: MOLT-4 leukemia
COLO 205 colon = tested on: COLO 205 colon
ACHN renal = tested on: ACHN renal
NCI/ADR-RES ovarian = tested on: NCI/ADR-RES ovarian
IGROV1 ovarian = tested on: IGROV1 ovarian
HL-60(TB) leukemia = tested on: HL-60(TB) leukemia
KM12 colon = tested on: KM12 colon
UACC-62 melanoma = tested on: UACC-62 melanoma
PC-3 prostate = tested on: PC-3 prostate
OVCAR-4 ovarian = tested on: OVCAR-4 ovarian
NCI-H460 lung = tested on: NCI-H460 lung
UO-31 renal = tested on: UO-31 renal
SF-268 CNS = tested on: SF-268 CNS

Measured: TGI

CC(=O)C(CN1CCCCC1)C(c1ccccc1)c1c(O)c2ccccc2oc1=O (centres undefined)
> 100 µM: SNB-75 CNS | RPMI-8226 leukemia | NCI-H226 lung | LOX IMVI melanoma | UACC-257 melanoma | K-562 leukemia | DU-145 prostate | 786-0 renal | HCT-116 colon | TK-10 renal | A498 renal | HOP-62 NSCLC | A549 NSCLC | CAKI-1 renal | HOP-92 NSCLC | NCI-H23 lung | HT29 colon | SF-295 CNS | OVCAR-5 ovarian | M14 melanoma | T-47D breast | SK-MEL-5 melanoma | MCF7 breast | SK-MEL-28 melanoma | SF-539 CNS | MDA-MB-435 | EKVX NSCLC | HCC-2998 colon | SN12C renal | NCI-H522 lung | OVCAR-8 ovarian | OVCAR-3 ovarian | U251 CNS | RXF 393 renal | SNB-19 CNS | MDA-N | MDA-MB-231 breast | CCRF-CEM leukemia | MALME-3M melanoma | SW-620 colon | HS 578T breast | SK-MEL-2 melanoma | BT-549 breast | SR leukemia | HCT-15 colon | SK-OV-3 ovarian | MOLT-4 leukemia | COLO 205 colon | ACHN renal | NCI/ADR-RES ovarian | IGROV1 ovarian | HL-60(TB) leukemia | KM12 colon | UACC-62 melanoma | PC-3 prostate | OVCAR-4 ovarian | NCI-H460 lung | UO-31 renal | SF-268 CNS
